Source: patent US9340590B2 (priority 2011, dated 2016)
Like-named read-outs stand apart in the source and are kept apart here. Positions of bridges follow the written chain, without caps; N, C: chain ends. Residues, ends and D or L forms follow the SMILES beside them.

Legend:
Assay in all cases: cell-based
[1] = biological target: hNav1.3 (Homo sapiens, UniProt Q9NY46); conditions: IonWorks Quattro, read-out: IWQ Use Nav1.3
[2] = biological target: hNav1.7 (Homo sapiens, UniProt Q15858); format: cell-based; conditions: IonWorks Quattro, read-out: IWQ Use Nav1.7
[3] = biological target: hNav1.5 (Homo sapiens, UniProt Q14524)
hNav1.5, sequence (Q14524 whole entry, looked up): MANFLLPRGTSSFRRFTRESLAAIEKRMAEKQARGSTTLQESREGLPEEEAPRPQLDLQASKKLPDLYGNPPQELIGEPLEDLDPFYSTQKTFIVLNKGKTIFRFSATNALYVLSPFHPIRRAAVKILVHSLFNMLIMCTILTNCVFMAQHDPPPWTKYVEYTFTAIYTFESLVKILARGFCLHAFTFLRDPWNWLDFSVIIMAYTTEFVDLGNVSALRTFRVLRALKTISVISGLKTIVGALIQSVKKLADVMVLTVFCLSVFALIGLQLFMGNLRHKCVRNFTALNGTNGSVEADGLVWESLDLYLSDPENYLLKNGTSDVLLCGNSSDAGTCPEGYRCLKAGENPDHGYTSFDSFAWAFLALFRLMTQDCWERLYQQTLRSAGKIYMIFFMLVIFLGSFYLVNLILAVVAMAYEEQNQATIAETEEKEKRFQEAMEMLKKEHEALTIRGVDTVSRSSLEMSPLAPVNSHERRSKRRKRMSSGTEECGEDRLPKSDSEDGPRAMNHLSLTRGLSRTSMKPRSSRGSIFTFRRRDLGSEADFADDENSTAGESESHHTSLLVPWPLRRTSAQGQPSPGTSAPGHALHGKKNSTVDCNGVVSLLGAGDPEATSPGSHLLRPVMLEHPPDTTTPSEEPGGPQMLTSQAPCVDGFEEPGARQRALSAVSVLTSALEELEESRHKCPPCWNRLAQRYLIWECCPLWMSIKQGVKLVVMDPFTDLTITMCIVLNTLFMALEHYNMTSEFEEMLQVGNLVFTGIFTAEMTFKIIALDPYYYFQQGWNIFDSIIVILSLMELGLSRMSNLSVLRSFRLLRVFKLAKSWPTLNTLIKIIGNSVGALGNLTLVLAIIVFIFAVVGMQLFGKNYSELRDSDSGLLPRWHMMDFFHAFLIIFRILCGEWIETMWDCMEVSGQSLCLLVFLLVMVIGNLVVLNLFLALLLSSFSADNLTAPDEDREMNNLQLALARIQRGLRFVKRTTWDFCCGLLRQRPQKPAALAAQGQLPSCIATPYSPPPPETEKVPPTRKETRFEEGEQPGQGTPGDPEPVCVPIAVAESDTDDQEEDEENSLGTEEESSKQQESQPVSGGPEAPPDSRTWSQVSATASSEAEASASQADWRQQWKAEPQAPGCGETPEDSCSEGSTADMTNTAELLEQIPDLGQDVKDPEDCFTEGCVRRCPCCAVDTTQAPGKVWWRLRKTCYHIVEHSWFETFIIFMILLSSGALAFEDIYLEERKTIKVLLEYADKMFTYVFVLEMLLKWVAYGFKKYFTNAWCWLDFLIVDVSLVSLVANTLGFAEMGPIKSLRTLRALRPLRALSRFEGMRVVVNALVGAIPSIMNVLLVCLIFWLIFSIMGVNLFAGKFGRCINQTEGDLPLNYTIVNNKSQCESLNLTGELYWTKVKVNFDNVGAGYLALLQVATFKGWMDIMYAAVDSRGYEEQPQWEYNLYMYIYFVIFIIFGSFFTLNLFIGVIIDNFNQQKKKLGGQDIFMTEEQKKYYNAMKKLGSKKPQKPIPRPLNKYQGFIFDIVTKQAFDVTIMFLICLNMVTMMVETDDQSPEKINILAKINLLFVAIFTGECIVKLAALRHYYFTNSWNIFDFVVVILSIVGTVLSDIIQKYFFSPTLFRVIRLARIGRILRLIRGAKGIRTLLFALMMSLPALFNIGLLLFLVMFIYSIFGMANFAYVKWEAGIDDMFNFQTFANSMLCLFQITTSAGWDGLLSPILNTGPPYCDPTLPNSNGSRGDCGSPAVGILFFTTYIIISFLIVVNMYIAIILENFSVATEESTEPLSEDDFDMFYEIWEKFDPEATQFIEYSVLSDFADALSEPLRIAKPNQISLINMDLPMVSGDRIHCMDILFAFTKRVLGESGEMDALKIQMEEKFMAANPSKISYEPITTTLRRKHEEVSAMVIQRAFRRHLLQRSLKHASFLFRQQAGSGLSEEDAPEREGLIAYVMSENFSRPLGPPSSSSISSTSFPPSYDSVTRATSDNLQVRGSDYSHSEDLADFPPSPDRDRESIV

[4] = clamped to −110 mV, depolarized to −10 mV, 5 min after compound, n=2

hNav1.3, sequence (Q9NY46 whole entry, looked up): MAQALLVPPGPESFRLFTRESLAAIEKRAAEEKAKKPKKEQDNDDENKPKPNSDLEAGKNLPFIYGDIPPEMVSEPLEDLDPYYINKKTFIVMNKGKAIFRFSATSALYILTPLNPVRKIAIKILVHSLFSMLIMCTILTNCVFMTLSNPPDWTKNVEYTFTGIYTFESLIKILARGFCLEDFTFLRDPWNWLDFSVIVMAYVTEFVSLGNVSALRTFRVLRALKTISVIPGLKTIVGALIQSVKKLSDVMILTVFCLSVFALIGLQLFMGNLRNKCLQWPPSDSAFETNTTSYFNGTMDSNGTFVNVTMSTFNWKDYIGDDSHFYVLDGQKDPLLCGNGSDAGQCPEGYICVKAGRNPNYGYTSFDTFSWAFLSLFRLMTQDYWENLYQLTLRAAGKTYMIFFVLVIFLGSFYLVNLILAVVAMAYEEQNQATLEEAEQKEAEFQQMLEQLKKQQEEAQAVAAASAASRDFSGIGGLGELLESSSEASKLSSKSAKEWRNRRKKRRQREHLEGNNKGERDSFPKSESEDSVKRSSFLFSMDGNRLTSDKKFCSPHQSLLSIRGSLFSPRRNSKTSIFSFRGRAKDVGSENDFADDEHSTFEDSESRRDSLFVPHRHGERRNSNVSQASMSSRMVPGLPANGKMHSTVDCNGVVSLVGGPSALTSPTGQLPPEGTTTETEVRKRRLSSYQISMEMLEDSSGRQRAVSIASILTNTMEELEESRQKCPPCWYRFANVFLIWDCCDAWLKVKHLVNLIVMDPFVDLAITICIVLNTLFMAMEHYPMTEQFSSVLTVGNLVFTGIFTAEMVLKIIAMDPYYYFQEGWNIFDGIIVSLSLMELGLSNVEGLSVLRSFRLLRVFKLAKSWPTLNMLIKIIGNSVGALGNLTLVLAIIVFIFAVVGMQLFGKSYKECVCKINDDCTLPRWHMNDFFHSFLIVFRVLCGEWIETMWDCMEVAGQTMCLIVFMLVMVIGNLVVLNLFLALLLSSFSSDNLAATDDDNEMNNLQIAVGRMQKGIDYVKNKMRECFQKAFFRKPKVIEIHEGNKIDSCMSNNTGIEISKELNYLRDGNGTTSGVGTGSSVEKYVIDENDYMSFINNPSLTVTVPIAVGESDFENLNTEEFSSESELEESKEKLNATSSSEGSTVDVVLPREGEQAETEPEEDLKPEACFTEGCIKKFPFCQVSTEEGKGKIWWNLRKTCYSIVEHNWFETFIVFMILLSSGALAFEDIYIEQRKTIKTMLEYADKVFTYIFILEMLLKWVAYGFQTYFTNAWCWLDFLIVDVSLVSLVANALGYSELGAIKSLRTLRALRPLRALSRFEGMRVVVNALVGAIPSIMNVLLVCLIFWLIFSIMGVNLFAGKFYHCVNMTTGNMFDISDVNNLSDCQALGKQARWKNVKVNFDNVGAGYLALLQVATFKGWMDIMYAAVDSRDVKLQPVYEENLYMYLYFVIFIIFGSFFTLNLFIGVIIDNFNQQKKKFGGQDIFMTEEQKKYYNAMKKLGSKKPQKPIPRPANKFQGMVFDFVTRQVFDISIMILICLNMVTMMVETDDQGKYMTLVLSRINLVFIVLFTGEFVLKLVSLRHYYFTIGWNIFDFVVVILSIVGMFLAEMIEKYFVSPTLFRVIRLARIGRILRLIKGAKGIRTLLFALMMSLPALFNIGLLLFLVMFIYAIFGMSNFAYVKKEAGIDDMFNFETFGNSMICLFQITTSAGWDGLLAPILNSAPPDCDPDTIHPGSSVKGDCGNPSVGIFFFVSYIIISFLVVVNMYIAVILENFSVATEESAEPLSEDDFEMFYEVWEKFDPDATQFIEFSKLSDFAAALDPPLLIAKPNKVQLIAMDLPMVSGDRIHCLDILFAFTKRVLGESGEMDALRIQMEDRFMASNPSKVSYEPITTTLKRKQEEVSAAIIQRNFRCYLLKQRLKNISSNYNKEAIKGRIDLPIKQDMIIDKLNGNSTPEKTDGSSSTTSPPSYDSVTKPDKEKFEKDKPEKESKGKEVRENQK

Structure (SMILES): CC[C@H](C)[C@@H]1NC(=O)[C@@H]2CSSC[C@@H]3NC(=O)[C@H](C(C)C)NC(=O)[C@H](CC(C)C)NC(=O)[C@H](CC(N)=O)NC(=O)[C@@H]4CCCN4C(=O)[C@H](CCCNC(=N)N)NC(=O)[C@H](CSSC[C@H](NC(=O)[C@@H](N)CC(=O)O)C(=O)N[C@@H](CC(C)C)C(=O)NCC(=O)N[C@@H](Cc4ccccc4)C(=O)N[C@@H](CCSC)C(=O)N[C@@H](CCCNC(=N)N)C(=O)N[C@@H](CCCCN)C(=O)N2)NC(=O)[C@H](CSSC[C@@H](C(=O)N[C@@H](CCCCN)C(=O)N[C@@H](Cc2ccc(O)cc2)C(=O)N[C@H](C(=O)N[C@@H](Cc2ccccc2)C(N)=O)C(C)C)NC(=O)[C@H](Cc2c[nH]c4ccccc24)NC(=O)[C@H](CCCCN)NC(=O)[C@H](Cc2cnc[nH]2)NC(=O)[C@H](CCC(=O)O)NC(=O)[C@H](CCCNC(=N)N)NC(=O)[C@H](CO)NC3=O)NC(=O)[C@H](CCCCN)NC(=O)[C@H](CC(=O)O)NC(=O)[C@H](CC(N)=O)NC(=O)[C@H](CC(=O)O)NC(=O)[C@@H]2CCCN2C1=O [SEQ ID NO: 152, [Glu26]GpTx-1] (H-DCLGFMRKCIPDNDKCCRPNLVCSREHKWCKYVF-NH2; disulfide 2-17, 9-23, 16-30)
- IC50 ([1]; Table 22, use, […]): 0.71 µM
- IC50 ([2]; Table 22, use, […]): 0.68 µM
- IC50 ([3]; IWQ Use Nav1.5 (μM)): 17.2 µM

Structure (SMILES): CC[C@H](C)[C@@H]1NC(=O)[C@@H]2CSSC[C@@H]3NC(=O)[C@H](C(C)C)NC(=O)[C@H](CC(C)C)NC(=O)[C@H](CC(N)=O)NC(=O)[C@@H]4CCCN4C(=O)[C@H](CCCNC(=N)N)NC(=O)[C@H](CSSC[C@H](NC(=O)[C@@H](N)CC(=O)O)C(=O)N[C@@H](CC(C)C)C(=O)NCC(=O)N[C@@H](Cc4ccccc4)C(=O)N[C@@H](CCCCN)C(=O)N[C@@H](CCCNC(=N)N)C(=O)N[C@@H](CCCCN)C(=O)N2)NC(=O)[C@H](CSSC[C@@H](C(=O)N[C@@H](CCCCN)C(=O)N[C@@H](Cc2ccc(O)cc2)C(=O)N[C@H](C(=O)N[C@@H](Cc2ccccc2)C(N)=O)C(C)C)NC(=O)[C@H](Cc2c[nH]c4ccccc24)NC(=O)[C@H](CCCCN)NC(=O)[C@H](Cc2cnc[nH]2)NC(=O)[C@H]([C@@H](C)O)NC(=O)[C@H](CCCNC(=N)N)NC(=O)[C@H](CO)NC3=O)NC(=O)[C@H](CCCCN)NC(=O)[C@H](CC(=O)O)NC(=O)[C@H](CC(N)=O)NC(=O)[C@H](CC(=O)O)NC(=O)[C@@H]2CCCN2C1=O [SEQ ID NO: 154] (H-DCLGFKRKCIPDNDKCCRPNLVCSRTHKWCKYVF-NH2; disulfide 2-17, 9-23, 16-30)
- IC50 [1, 4]: 8.49 µM
- IC50 [2, 4]: 14.5 µM
- IC50 ([3]; IonWorks Quattro, clamped to −110 mV, depolarized to −10 mV, 5 min after compound, n=2, read-out: IWQ Use Nav1.5): 13.9 µM

Structure (SMILES): CC[C@H](C)[C@@H]1NC(=O)[C@@H]2CSSC[C@@H]3NC(=O)[C@H](C(C)C)NC(=O)[C@H](CC(C)C)NC(=O)[C@H](CC(N)=O)NC(=O)[C@@H]4CCCN4C(=O)[C@H](CCCNC(=N)N)NC(=O)[C@H](CSSC[C@H](NC(=O)[C@@H](N)CC(=O)O)C(=O)N[C@@H](CC(C)C)C(=O)NCC(=O)N[C@@H](Cc4ccccc4)C(=O)N[C@@H](CCSC)C(=O)N[C@@H](CCCNC(=N)N)C(=O)N[C@@H](CCCCN)C(=O)N2)NC(=O)[C@H](CSSC[C@@H](C(=O)N[C@@H](CCCCN)C(=O)N[C@@H](Cc2ccc(O)cc2)C(=O)N[C@H](C(=O)N[C@@H](Cc2ccccc2)C(N)=O)C(C)C)NC(=O)[C@H](Cc2c[nH]c4ccccc24)NC(=O)[C@H](CCCCN)NC(=O)[C@H](Cc2cnc[nH]2)NC(=O)[C@H]([C@@H](C)O)NC(=O)[C@H](CCCNC(=N)N)NC(=O)[C@H](CO)NC3=O)NC(=O)[C@H](CCCCN)NC(=O)[C@H](CC(=O)O)NC(=O)[C@H](CC(N)=O)NC(=O)[C@H](CC(=O)O)NC(=O)[C@H](Cc2c[nH]c3ccccc23)NC1=O [SEQ ID NO: 171, [Trp11]GpTx-1] (H-DCLGFMRKCIWDNDKCCRPNLVCSRTHKWCKYVF-NH2; disulfide 2-17, 9-23, 16-30)
- IC50 ([1]; Use): 0.04 µM
- IC50 ([2]; Use): 0.07 µM
- IC50 ([3]; IonWorks Quattro, Use, read-out: IWQ Use Nav1.5): 9.5 µM
